Patent publication EP0670321A1, “Oxazopyrroloquinoline deivatives and use thereof” (MITSUBISHI GAS CHEMICAL COMPANY, INC., priority 1994, dated 1995)

Molecular target: T1, recombinant human aldose reductase (Homo sapiens, UniProt P15121)
T1 construct: made in house; host or cells: Baculovirus-insect cell system
Experiment: Aldose reductase inhibition (decrease with time in absorbance at 340 nm, NADPH / DL-glyceraldehyde)
Format: biochemical
Details: 0.1M phosphoric acid buffer, 25°C, absorbance 340 nm, read-out: IC₅₀
Excerpt: A large amount of recombinant human aldose reductase was expressed in a Baculovirus-insect cell system by Nishimura et al method (Nishimura et al, J. Biol. Chem. volume 265, pages 9,788-9,792, 1990 and Biochem. Biophys. Acta. volume 1,078, pages 171-178, 1991; and Tanimoto and Nishimura, Experimental Medicine, volume 9, No. 5 (extra issue), pages 165-170, 1991). Purification was made by affinity chromatography, gel filtration and chromatofocusing until electrophoretically uniform aldose reductase was obtained.
To 0.1M phosphoric acid buffer solution (0.8 ml) was added 3mM NADPH (0.05 ml), DL-glyceral-dehyde (0.1 ml) and distilled water (0.04 ml). The mixture was left to stand at 25°C for three minutes. To the mixture was added aldose reductase solution (0.01 ml) in order to start a reaction. Measurement was made of reduction with time in absorbance of 340 nm at 25°C. The amount of enzyme that consumes 1µ mole of […] per minute was taken as a unit.
Enzyme activities were measured after aqueous inhibiting substance solution (0.04 ml each) having various concentrations in place of the distilled water (0.04 ml) under the same conditions as those for aldose reductase. IC₅₀ values that inhibit enzyme activity by 50% were calculated on the basis of enzyme activities measured in the presence or absence of the inhibitors. The inhibitors used include: 8,10-dicarboxy-2-methoxycarbonyl-1H-oxazo[5,4-h] pyrrolo[2,3-f]quinoline (Compound 1, abbreviated OPQ-8,10-DCA-2-ME); 8-carboxy-2,10-dimethoxycarbonyl-1H-oxazo[5,4-h] pyrrolo-[2,3-f]quinoline (Compound 2, abbreviated OPQ-8-CA-2,10-DME); 10-(N-n-amyl)carbamoyl-2,8-dicarboxy-1H-oxazo [5,4-h]pyrrolo[2,3-f]quinoline (Compound 3, abbreviated OPQ-2,8-DCA-10-AA); 10-(N-n-amyl)carbamoyl-8-carboxy-2-methoxy-carbonyl-1H-oxazo[5,4-h]pyrrolo[2,3-f]quinoline (Compound 4, abbreviated OPQ-8-CA-2-ME-10-AA); 2,10-dicarboxy-8-methoxycarbonyl-1H-oxazo[5,4-h] pyrrolo-[2,3-f]quinoline (abbreviated OPQ-2,10-DCA-8-ME); 10-carboxy-2,8-dimethoxycarbonyl-1H-oxazo[5,4-h] pyrrolo-[2,3-f]quinoline (abbreviated OPQ-10-CA-2,8-DME); 2,8,10-trimethoxycarbonyl-1H-oxazo[5,4-h]pyrrolo [2,3-f]-quinoline (abbreviated OPQ-2,8,10-TME); 10-carboxy-2-methoxycarbonyl-1H-oxazo[5,4-h] pyrrolo-[2,3-f]quinoline (abbreviated OPQ-10-CA-2-ME); 8,10-diethoxycarbonyl-2-methoxycarbonyl-1H-oxazo [5,4-hj]yrrolo[2,3-f]quinoline (abbreviated OPQ-2-ME-8,10-DME); 10-(N-n-amyl) carbamoyl-2,8-dimethoxycarbonyl-1H-oxazo[5,4-h]pyrrolo[2,3-f]quinoline (abbreviated OPQ-2,8-DME-10-AA); and 2,8,10-tri[(N-n-amyl)carbamoyl]-1H-oxazo[5,4-h] pyrrolo-[2,3-f]quinoline (abbreviated OPQ-2,8,10-TAA).

Row | Structure (SMILES) | IC50 [nM]
1 | COC(=O)c1cc2c([nH]1)c1c(C(=O)O)cc(C(=O)O)nc1c1ncoc21 [Compound 1, 8,10-dicarboxy-2-methoxycarbonyl-1H-oxazo[5,4-h] pyrrolo[2,3-f]quinoline] | 260
2 | COC(=O)c1cc2c([nH]1)c1c(C(=O)OC)cc(C(=O)O)nc1c1ncoc21 [Compound 2, 8-carboxy-2,10-dimethoxycarbonyl-1H-oxazo[5,4-h] pyrrolo-[2,3-f]quinoline] | 580
3 | CCCCCNC(=O)c1cc(C(=O)O)nc2c3ncoc3c3cc(C(=O)O)[nH]c3c12 [Compound 3, 10-(N-n-amyl)carbamoyl-2,8-dicarboxy-1H-oxazo [5,4-h]pyrrolo[2,3-f]quinoline] | 260
4 | CCCCCNC(=O)c1cc(C(=O)O)nc2c3ncoc3c3cc(C(=O)OC)[nH]c3c12 [Compound 4, 10-(N-n-amyl)carbamoyl-8-carboxy-2-methoxy-carbonyl-1H-oxazo[5,4-h]pyrrolo[2,3-f]quinoline] | 190
5 | CCCCCNC(=O)c1cc(C(=O)NCCCCC)c2c(n1)c1ncoc1c1cc(C(=O)NCCCCC)[nH]c12 [OPQ-2,8,10-TAA, 2,8,10-tri[(N-n-amyl)carbamoyl]-1H-oxazo[5,4-h] pyrrolo-[2,3-f]quinoline] | 77000
6 | COC(=O)c1cc(C(=O)OC)c2c(n1)c1ncoc1c1cc(C(=O)OC)[nH]c12 [OPQ-2,8,10-TME, 2,8,10-trimethoxycarbonyl-1H-oxazo[5,4-h]pyrrolo [2,3-f]-quinoline] | > 100000
7 | CCCCCNC(=O)c1cc(C(=O)OC)nc2c3ncoc3c3cc(C(=O)OC)[nH]c3c12 [OPQ-2,8-DME-10-AA, 10-(N-n-amyl) carbamoyl-2,8-dimethoxycarbonyl-1H-oxazo[5,4-h]pyrrolo[2,3-f]quinoline] | 93000
8 | COC(=O)c1cc(C(=O)O)c2c(n1)c1ncoc1c1cc(C(=O)O)[nH]c12 [OPQ-2,10-DCA-8-ME, 2,10-dicarboxy-8-methoxycarbonyl-1H-oxazo[5,4-h] pyrrolo-[2,3-f]quinoline] | 2900
9 | CCOC(=O)c1cc(C(=O)OCC)c2c(n1)c1ncoc1c1cc(C(=O)OC)[nH]c12 [OPQ-2ME-8,10-DEE, 8,10-diethoxycarbonyl-2-methoxycarbonyl-1H-oxazo [5,4-hj]yrrolo[2,3-f]quinoline] | > 100000
10 | COC(=O)c1cc(C(=O)O)c2c(n1)c1ncoc1c1cc(C(=O)OC)[nH]c12 [OPQ-10-CA-2,8-DME, 10-carboxy-2,8-dimethoxycarbonyl-1H-oxazo[5,4-h] pyrrolo-[2,3-f]quinoline] | 1300
11 | COC(=O)c1cc2c([nH]1)c1c(C(=O)O)ccnc1c1ncoc21 [OPQ-10-CA-2ME, 10-carboxy-2-methoxycarbonyl-1H-oxazo[5,4-h] pyrrolo-[2,3-f]quinoline] | 1700
